{"source": "EPA's ToxRefDB 2", "key": {"dog": {"system": "dog", "settings": "Chronic toxicity, beagle, Oral, Capsule, dose end: 12 month, group: systemic"}, "rat [1]": {"system": "rat", "settings": "Prenatal developmental toxicity study, sprague dawley, Oral, Gavage/Intubation, dose end: 15 GD"}, "rat [2]": {"system": "rat", "settings": "Combined chronic toxicity/carcinogenicity, sprague dawley, Oral, [Not Specified], dose end: 2 year, group: systemic"}, "rat [3]": {"system": "rat", "settings": "Subchronic oral toxicity in rodents, sprague dawley, Feed, dose end: 90 day, group: systemic"}, "rat [4]": {"system": "rat", "settings": "Subchronic oral toxicity in rodents, sprague dawley, Feed, dose end: 90 day, group: systemic", "remark": "listed apart in the source"}, "rat [5]": {"system": "rat", "settings": "Subchronic oral toxicity in rodents, sprague dawley, Feed, dose end: 93 day, group: systemic"}, "rat [6]": {"system": "rat", "settings": "Multigenerational reproductive toxicity study, sprague dawley, Oral, Feed, dose end: 2 generation; for LOAEL: systemic / organ weight / brain / nos"}, "rat [7]": {"system": "rat", "settings": "Subchronic oral toxicity in rodents, sprague dawley, Feed, dose end: 90 day, group: systemic, systemic / in life observation / body weight / body weight + systemic / in life observation / body weight / body weight gain + systemic / in…"}, "mouse [8]": {"system": "mouse", "settings": "Subchronic oral toxicity in rodents, other, Feed, dose end: 90 day, group: systemic"}, "mouse [9]": {"system": "mouse", "settings": "Carcinogenicity, cd1, Oral, Feed, dose end: 81 week, group: systemic"}, "[10]": {"settings": "systemic / clinical chemistry / alkaline phosphatase (alp/alk) / alkaline phosphatase (alp/alk) + systemic / clinical chemistry / …"}, "[11]": {"settings": "systemic / clinical chemistry / alkaline phosphatase (alp/alk) / alkaline phosphatase (alp/alk) + systemic / in life observation / clinical …"}, "[12]": {"settings": "group: developmental, developmental / developmental malformation / bone / incomplete ossification + systemic / in life observation / body weight / fetal weight"}, "[13]": {"settings": "group: maternal, systemic / in life observation / body weight / body weight gain + systemic / in life observation / food consumption / food consumption"}, "[14]": {"settings": "systemic / organ weight / liver / relative to body weight + systemic / pathology microscopic / liver / cytoplasmic alteration + systemic / …"}, "[15]": {"settings": "systemic / organ weight / liver / absolute + systemic / organ weight / liver / relative to body weight + systemic / organ weight / liver / …"}, "[16]": {"settings": "systemic / pathology gross / liver / [other] + systemic / pathology microscopic / thyroid gland / colloid content"}, "[17]": {"settings": "systemic / clinical chemistry / cholesterol / cholesterol + systemic / organ weight / liver / absolute + systemic / organ weight / liver / …"}, "[18]": {"settings": "systemic / pathology gross / liver / enlarged"}, "[19]": {"settings": "group: offspring, systemic / organ weight / brain / nos + systemic / in life observation / body weight / offspring (pup) weight + systemic / organ weight / …"}, "[20]": {"settings": "systemic / organ weight / liver / relative to brain weight + systemic / pathology gross / liver / [other] + systemic / pathology microscopic…"}, "[21]": {"settings": "systemic / pathology microscopic / spleen / pigmentation"}, "[22]": {"settings": "systemic / in life observation / body weight / body weight + systemic / in life observation / body weight / body weight gain + systemic / in…"}}, "data": [{"smiles": "CSC1=N[C@@](C)(c2ccccc2)C(=O)N1Nc1ccccc1", "note": "[Fenamidone]", "values": [{"measurement": "LEL", "setting": "dog; [10]", "value": 1000, "unit": "mg/kg/day"}, {"measurement": "LOAEL", "setting": "dog; [10]", "value": 1000, "unit": "mg/kg/day"}, {"measurement": "NEL", "setting": "dog; [11]", "value": 100, "unit": "mg/kg/day"}, {"measurement": "NOAEL", "setting": "dog; [11]", "value": 100, "unit": "mg/kg/day"}, {"measurement": "LEL", "setting": "rat [1]; [12]", "value": 1000, "unit": "mg/kg/day"}, {"measurement": "LOAEL", "setting": "rat [1]; [12]", "value": 1000, "unit": "mg/kg/day"}, {"measurement": "NEL", "setting": "rat [1]; [12]", "value": 150, "unit": "mg/kg/day"}, {"measurement": "NOAEL", "setting": "rat [1]; [12]", "value": 150, "unit": "mg/kg/day"}, {"measurement": "LEL", "setting": "rat [1]; [13]", "value": 1000, "unit": "mg/kg/day"}, {"measurement": "LOAEL", "setting": "rat [1]; [13]", "value": 1000, "unit": "mg/kg/day"}, {"measurement": "NEL", "setting": "rat [1]; [13]", "value": 150, "unit": "mg/kg/day"}, {"measurement": "NOAEL", "setting": "rat [1]; [13]", "value": 150, "unit": "mg/kg/day"}, {"measurement": "NEL", "setting": "rat [2]; systemic / organ weight / uterus / absolute + systemic / organ weight / uterus / relative to body weight", "value": 335, "unit": "mg/kg/day"}, {"measurement": "LOAEL", "setting": "rat [2]; systemic / pathology microscopic / thyroid gland / hyperplasia", "value": 7.07, "unit": "mg/kg/day"}, {"measurement": "NOAEL", "setting": "rat [2]; systemic / pathology microscopic / thyroid gland / hyperplasia + systemic / clinical chemistry / alanine aminotransferase (alt/sgpt) / …", "value": 2.83, "unit": "mg/kg/day"}, {"measurement": "LEL", "setting": "rat [3]; systemic / clinical chemistry / aspartate aminotransferase (ast/sgot) / aspartate aminotransferase (ast/sgot)", "value": 10.4, "unit": "mg/kg/day"}, {"measurement": "LOAEL", "setting": "rat [3]; systemic / organ weight / liver / relative to body weight + systemic / pathology microscopic / liver / cytoplasmic alteration", "value": 68.3, "unit": "mg/kg/day"}, {"measurement": "NEL", "setting": "rat [3]; [14]", "value": 4.05, "unit": "mg/kg/day"}, {"measurement": "NOAEL", "setting": "rat [3]; [14]", "value": 10.4, "unit": "mg/kg/day"}, {"measurement": "LOAEL", "setting": "rat [4]; [15]", "value": 32.9, "unit": "mg/kg/day"}, {"measurement": "NOAEL", "setting": "rat [4]; [15]", "value": 6.42, "unit": "mg/kg/day"}, {"measurement": "LEL", "setting": "rat [4]; [16]", "value": 6.42, "unit": "mg/kg/day"}, {"measurement": "NEL", "setting": "rat [4]; [16]", "value": "< 6.42", "unit": "mg/kg/day"}, {"measurement": "LOAEL", "setting": "rat [5]; [17]", "value": 93.3, "unit": "mg/kg/day"}, {"measurement": "NOAEL", "setting": "rat [5]; [17]", "value": 9.4, "unit": "mg/kg/day"}, {"measurement": "LEL", "setting": "rat [5]; [18]", "value": 9.4, "unit": "mg/kg/day"}, {"measurement": "NEL", "setting": "rat [5]; [18]", "value": "< 9.4", "unit": "mg/kg/day"}, {"measurement": "LOAEL", "setting": "rat [6]; group: offspring", "value": 89.2, "unit": "mg/kg/day"}, {"measurement": "LEL", "setting": "rat [6]; group: offspring, systemic / organ weight / brain / nos + systemic / in life observation / body weight / offspring (pup) weight", "value": 89.2, "unit": "mg/kg/day"}, {"measurement": "NEL", "setting": "rat [6]; [19]", "value": 5.45, "unit": "mg/kg/day"}, {"measurement": "NOAEL", "setting": "rat [6]; [19]", "value": 5.45, "unit": "mg/kg/day"}, {"measurement": "LEL", "setting": "rat [6]; group: parental, systemic / in life observation / food consumption / food consumption", "value": 63.8, "unit": "mg/kg/day"}, {"measurement": "NEL", "setting": "rat [6]; group: parental, systemic / in life observation / food consumption / food consumption + systemic / in life observation / body weight / body weight + systemic…", "value": 3.9, "unit": "mg/kg/day"}, {"measurement": "LOAEL", "setting": "rat [6]; group: parental", "value": 89.2, "unit": "mg/kg/day"}, {"measurement": "NOAEL", "setting": "rat [6]; group: parental, systemic / organ weight / brain / nos + systemic / in life observation / body weight / body weight + systemic / organ weight / liver / …", "value": 5.45, "unit": "mg/kg/day"}, {"measurement": "LEL", "setting": "rat [7]", "value": 305, "unit": "mg/kg/day"}, {"measurement": "LOAEL", "setting": "rat [7]", "value": 305, "unit": "mg/kg/day"}, {"measurement": "NEL", "setting": "rat [7]", "value": 29.7, "unit": "mg/kg/day"}, {"measurement": "NOAEL", "setting": "rat [7]", "value": 29.7, "unit": "mg/kg/day"}, {"measurement": "LOAEL", "setting": "mouse [8]; [20]", "value": 220, "unit": "mg/kg/day"}, {"measurement": "NOAEL", "setting": "mouse [8]; [20]", "value": 44.5, "unit": "mg/kg/day"}, {"measurement": "LEL", "setting": "mouse [8]; [21]", "value": 11.3, "unit": "mg/kg/day"}, {"measurement": "NEL", "setting": "mouse [8]; [21]", "value": "< 11.3", "unit": "mg/kg/day"}, {"measurement": "LOAEL", "setting": "mouse [9]; [22]", "value": 526, "unit": "mg/kg/day"}, {"measurement": "NEL", "setting": "mouse [9]; [22]", "value": 9.5, "unit": "mg/kg/day"}, {"measurement": "NOAEL", "setting": "mouse [9]; [22]", "value": 47.5, "unit": "mg/kg/day"}, {"measurement": "LEL", "setting": "mouse [9]; systemic / organ weight / liver / nos", "value": 47.5, "unit": "mg/kg/day"}]}]}
